This is an account of results in patent US12037305B2, “Calcium salt polymorphs as anti-inflammatory, immunomodulatory and anti-proliferative agents” (Immunic AG, priority 2018, dated 2024).

SMILES strings stand for the structures. Where a name gives a salt, the structure may show the parent alone.

For one data set, the system named is Human T-Cells. Nature of the data set: Proliferation assay of human T-cells (PHA-stimulated PBMC, BrdU ELISA). It is filed as cell-based. As to conditions: T-cell, PHA 20 μg/ml, 48 hours. As for the experimental part: Human peripheral blood mononuclear cells (PBMC) were obtained from healthy volunteers and transferred to RPMI1640 cell culture medium containing 10% dialyzed fetal calf serum. 80.000 cells per well were pipetted into a 96-well plate and phytohemagglutinin (PHA) was added in phosphate buffered saline to a final concentration of 20 μg/ml to stimulate T-cell proliferation. Vidofludimus was added in dimethyl sulfoxide (DMSO, final concentration: 0.1 Vol %) to final concentrations ranging from 20 nM to 50 μM. After incubation for 48 hours, cell proliferation was quantified using the “cell proliferation ELISA BrdU” (Roche) according to the manufacturer's instructions. Half maximal inhibition (IC50) was calculated using a 4-parameter sigmoidal curve fit.
(In general: Uptake of a labelled nucleoside into DNA is a usual measure of proliferation.)

Data set [1] is described as follows: Dynamic vapor sorption (DVS). It is filed as physicochemical. The text has this:
DVS (SMS): Surface Measurement Systems Ltd. DVS-1 water vapour sorption analyzer. The sample is placed on a platinum sample pan and allowed to equilibrate at a given relative humidity (r.h.), usually 50% r.h. Then, a pre-defined humidity program was started with a scanning rate of 5% r.h. change per hour. First step: from 50% r.h. to 0% r.h. (in case of a possibly hydrate as starting material 50 to 95% r.h.), second step: from 0% to 95% r.h. (in case of a possibly hydrate as starting material 95 to 0% r.h.)

In general, IC50 refers to the concentration at which inhibition is half-maximal. A high value points to weaker potency. In the data set with Human T-Cells, `COc1cccc(-c2ccc(NC(=O)C3=C(C(=O)O)CCC3)c(F)c2)c1` [Vidofludimus, 2-(3-Fluoro-3′-methoxy-biphenyl-4-ylcarbamoyl)-cyclopent-1-enecarboxylic acid] registered an IC50 of 4.1 µM.

Take `COc1cccc(-c2ccc(NC(=O)C3=C(C(=O)O)CCC3)c(F)c2)c1` [Calcium salt]: the water uptake in data set [1] (at 95% r.h. (not reversible)) was found to be 0.4%; in data set [1] (at about 85% r.h., after desolvation), 0.3%.
